Measured values reported in US20250375544A1, “DUAL MODE RADIOTRACER AND -THERAPEUTICS” (TECHNISCHE UNIVERSITÄT MÜNCHEN, priority 2021, published 2025).

Assays:
[1] = Wangler et al., Bioconjug Chem. 2010; cited from earlier work
[2] = ^177Lu-labeled compound, n = 6
PSMA = PSMA (Homo sapiens, UniProt Q04609); experiment: Affinity determinations (IC50), competitive binding assay with ([^125I]I-BA)KuE on LNCaP cells; settings: ([^125I]I-BA)KuE 0.2 nM, HBSS (1% BSA), 4° C., 1 h, cold ^natGa/^natLu complex
Chain of PSMA (Q04609 whole entry): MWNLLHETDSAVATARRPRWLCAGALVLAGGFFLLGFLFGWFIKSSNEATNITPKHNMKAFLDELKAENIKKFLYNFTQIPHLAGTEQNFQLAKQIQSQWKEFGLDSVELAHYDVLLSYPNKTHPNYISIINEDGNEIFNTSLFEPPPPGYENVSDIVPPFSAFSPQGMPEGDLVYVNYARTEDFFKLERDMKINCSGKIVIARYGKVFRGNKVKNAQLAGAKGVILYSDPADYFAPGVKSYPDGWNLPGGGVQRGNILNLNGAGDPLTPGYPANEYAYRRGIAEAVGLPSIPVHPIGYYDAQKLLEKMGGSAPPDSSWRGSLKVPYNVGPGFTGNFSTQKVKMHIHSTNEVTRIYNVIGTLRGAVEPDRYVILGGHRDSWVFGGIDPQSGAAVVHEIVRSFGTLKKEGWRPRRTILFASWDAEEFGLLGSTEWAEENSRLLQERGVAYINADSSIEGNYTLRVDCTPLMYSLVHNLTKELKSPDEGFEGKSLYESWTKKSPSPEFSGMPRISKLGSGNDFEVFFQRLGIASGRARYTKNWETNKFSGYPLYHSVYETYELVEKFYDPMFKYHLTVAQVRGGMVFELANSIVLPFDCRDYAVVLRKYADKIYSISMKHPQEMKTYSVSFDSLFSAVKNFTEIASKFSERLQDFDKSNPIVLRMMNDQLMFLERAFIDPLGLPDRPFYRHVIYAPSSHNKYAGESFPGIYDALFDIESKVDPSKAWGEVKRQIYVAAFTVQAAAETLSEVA

[3] = system: LNCaP tumor xenograft-bearing CB17-SCID mice; experiment: Biodistribution in LNCaP tumor xenograft-bearing CB17-SCID mice

## SIFA-Asn(AcNH-p-Glc)-PEG-Tyr^3-octreotate
[1]
  log P(ow): 0.96

## CSCC[C@H](NC(=O)CC[C@H](NC(=O)N[C@@H](CCC(=O)N[C@H](CCCNC(=O)CCC(=O)NCCCC[C@@H](NC(=O)[C@@H](CNC(=O)c1ccc([Si](F)(C(C)(C)C)C(C)(C)C)cc1)NC(=O)CN1CCN(CC(=O)O)CCN(CC(=O)O)CCN(CC(=O)O)CC1)C(=O)O)C(=O)O)C(=O)O)C(=O)O)C(=O)O [Compound 5, Proinhibitor I]
[2]
  log D: −2.89±0.18

## CCCCC[C@H](NC(=O)N[C@@H](CCC(=O)N[C@H](CCCNC(=O)CCC(=O)NCCCC[C@@H](NC(=O)[C@@H](CNC(=O)c1ccc([Si](F)(C(C)(C)C)C(C)(C)C)cc1)NC(=O)CN1CCN(CC(=O)[O-])CCN(CC(=O)[O-])CCN(CC(=O)[O-])CC1)C(=O)O)C(=O)O)C(=O)O)C(=O)O.[Lu+3] [^natLu-8, ^natLu-2-Aminoheptanoic Acid Derivative 8]
PSMA
  IC50: > 2000 nM

## CC(C)(C)[Si](F)(c1ccc(C(=O)NC[C@@H](NC(=O)CN2CCN(CC(=O)[O-])CCN(CC(=O)[O-])CCN(CC(=O)[O-])CC2)C(=O)N[C@H](CCCCNC(=O)CCC(=O)NCCC[C@@H](NC(=O)CC[C@H](NC(=O)O[C@@H](CCC(=O)O)C(=O)O)C(=O)O)C(=O)O)C(=O)O)cc1)C(C)(C)C.[177Lu+3] [[^177Lu]Lu-3, [^177Lu]Lu-Carbamate I]
[2]
  log D: −3.40±0.45
[3]; 1 h p.i.
  Biodistribution Adrenals: 1.46 ± 0.70 % ID/g
  Biodistribution Blood: 0.97 ± 0.18 % ID/g
  Biodistribution Bone: 0.18 ± 0.02 % ID/g
  Biodistribution Heart: 0.36 ± 0.04 % ID/g
  Biodistribution Intestine: 0.36 ± 0.17 % ID/g
  Biodistribution Kidneys: 61.8±25.9 % ID/g
  Biodistribution Liver: 0.87 ± 0.28 % ID/g
  Biodistribution Lung: 2.88 ± 2.96 % ID/g
  Biodistribution Muscle: 0.13 ± 0.04 % ID/g
  Biodistribution Pancreas: 0.25 ± 0.06 % ID/g
  Biodistribution Parotid gland: 0.62 ± 0.20 % ID/g
  Biodistribution Spleen: 2.51 ± 0.95 % ID/g
  Biodistribution Stomach: 0.30 ± 0.09 % ID/g
  Biodistribution Submandibular gland: 0.37 ± 0.08 % ID/g
  Biodistribution Tumor: 5.31±0.94 % ID/g
  Ratio Tumor-to-blood: 5.57 ± 1.18
  Ratio Tumor-to-kidney: 0.09 ± 0.03
  Ratio Tumor-to-liver: 6.61 ± 2.19
  Ratio Tumor-to-muscle: 44.1 ± 9.0
  Ratio Tumor-to-parotid gland: 9.09 ± 3.13
  Ratio Tumor-to-submandibular gland: 14.7 ± 3.5
[3]; 1 h p.i. vs 24 h p.i.
  tumor-to-submandibularis and -parotidea ratios at 1 h p.i. compared to respective values at 24 h p.i.: two-fold lower
[3]; 24 h p.i.
  Biodistribution Adrenals: 0.04 ± 0.01 % ID/g
  Biodistribution Blood: 0.00 ± 0.00 % ID/g
  Biodistribution Bone: 0.02 ± 0.01 % ID/g
  Biodistribution Heart: 0.02 ± 0.01 % ID/g
  Biodistribution Intestine: 0.12 ± 0.06 % ID/g
  Biodistribution Kidneys: 0.31 ± 0.05 % ID/g
  Biodistribution Liver: 0.13 ± 0.05 % ID/g
  Biodistribution Lung: 0.03 ± 0.01 % ID/g
  Biodistribution Muscle: 0.01 ± 0.01 % ID/g
  Biodistribution Pancreas: 0.02 ± 0.01 % ID/g
  Biodistribution Parotid gland: 0.04 ± 0.02 % ID/g
  Biodistribution Spleen: 0.09 ± 0.01 % ID/g
  Biodistribution Stomach: 0.06 ± 0.04 % ID/g
  Biodistribution Submandibular gland: 0.03 ± 0.01 % ID/g
  Biodistribution Tumor: 1.20 ± 0.55 % ID/g
  Ratio Tumor-to-blood: 947 ± 652
  Ratio Tumor-to-kidney: 3.80 ± 1.36
  Ratio Tumor-to-liver: 8.94 ± 2.94
  Ratio Tumor-to-muscle: 127 ± 92
  Ratio Tumor-to-parotid gland: 31.8 ± 9.3
  Ratio Tumor-to-submandibular gland: 34.5 ± 9.2

## CCCCCC[C@H](NC(=O)CC[C@H](NC(=O)N[C@@H](CCC(=O)N[C@H](CCCNC(=O)CCC(=O)NCCCC[C@@H](NC(=O)[C@@H](CNC(=O)c1ccc([Si](F)(C(C)(C)C)C(C)(C)C)cc1)NC(=O)CN1CCN(CC(=O)[O-])CCN(CC(=O)[O-])CCN(CC(=O)[O-])CC1)C(=O)O)C(=O)O)C(=O)O)C(=O)O)C(=O)O.[177Lu+3] [[^177Lu]Lu-6, [^177Lu]Lu-Proinhibitor II]
[3]; 24 h p.i.
  Biodistribution Adrenals: 0.04 ± 0.00 % ID/g
  Biodistribution Blood: 0.00 ± 0.00 % ID/g
  Biodistribution Bone: 0.02 ± 0.01 % ID/g
  Biodistribution Heart: 0.03 ± 0.01 % ID/g
  Biodistribution Intestine: 0.18 ± 0.06 % ID/g
  Biodistribution Kidneys: 2.36 ± 0.39 % ID/g
  Biodistribution Liver: 0.14 ± 0.02 % ID/g
  Biodistribution Lung: 0.10 ± 0.08 % ID/g
  Biodistribution Muscle: 0.02 ± 0.00 % ID/g
  Biodistribution Pancreas: 0.03 ± 0.01 % ID/g
  Biodistribution Parotid gland: 0.09 ± 0.03 % ID/g
  Biodistribution Spleen: 0.11 ± 0.03 % ID/g
  Biodistribution Stomach: 0.05 ± 0.01 % ID/g
  Biodistribution Submandibular gland: 0.07 ± 0.01 % ID/g
  Biodistribution Tumor: 0.33±0.11 % ID/g

## CC(C)(C)[Si](F)(c1ccc(C(=O)NCC(NC(=O)CN2CCN(CC(=O)[O-])CCN(CC(=O)[O-])CCN(CC(=O)[O-])CC2)C(=O)NC(CCCCNC(=O)CCC(=O)NCCCC(NC(=O)CCC(NC(=O)NC(Cc2ccco2)C(=O)O)C(=O)O)C(=O)O)C(=O)O)cc1)C(C)(C)C.[Lu+3] (centres unmarked) [^natLu-9, ^natLu-Furyl Derivative 9]
PSMA
  IC50: > 440 nM

## CC(C)(C)[Si](F)(c1ccc(C(=O)NCC(NC(=O)CN2CCN(CC(=O)[O-])CCN(CC(=O)[O-])CCN(CC(=O)[O-])CC2)C(=O)NC(CCCCNC(=O)CCC(=O)NCCCC(NC(=O)CCC(NC(=O)NC(CCc2nnn[nH]2)C(=O)O)C(=O)O)C(=O)O)C(=O)O)cc1)C(C)(C)C.[Lu+3] (centres unmarked) [^natLu-11, ^natLu-Tetrazole Derivative 11]
PSMA
  IC50: 16.4 ± 3.8 nM

## CCCCCC[C@H](NC(=O)[C@H](CCC(=O)O)NC(=O)N[C@@H](CCC(=O)N[C@H](CCCNC(=O)CCC(=O)NCCCC[C@@H](NC(=O)[C@@H](CNC(=O)c1ccc([Si](F)(C(C)(C)C)C(C)(C)C)cc1)NC(=O)CN1CCN(CC(=O)[O-])CCN(CC(=O)[O-])CCN(CC(=O)[O-])CC1)C(=O)O)C(=O)O)C(=O)O)C(=O)O.[177Lu+3] [[^177Lu]Lu-7, [^177Lu]Lu-Proinhibitor III]
[3]; 24 h p.i.
  Biodistribution Adrenals: 0.03 ± 0.01 % ID/g
  Biodistribution Blood: 0.01 ± 0.00 % ID/g
  Biodistribution Bone: 0.04 ± 0.01 % ID/g
  Biodistribution Heart: 0.03 ± 0.01 % ID/g
  Biodistribution Intestine: 0.10 ± 0.05 % ID/g
  Biodistribution Kidneys: 2.04 ± 0.75 % ID/g
  Biodistribution Liver: 0.17 ± 0.05 % ID/g
  Biodistribution Lung: 0.04 ± 0.01 % ID/g
  Biodistribution Muscle: 0.01 ± 0.00 % ID/g
  Biodistribution Pancreas: 0.02 ± 0.00 % ID/g
  Biodistribution Parotid gland: 0.06 ± 0.01 % ID/g
  Biodistribution Spleen: 0.08 ± 0.02 % ID/g
  Biodistribution Stomach: 0.04 ± 0.01 % ID/g
  Biodistribution Submandibular gland: 0.05 ± 0.02 % ID/g
  Biodistribution Tumor: 0.14 ± 0.05 % ID/g

## CC(C)(C)[Si](F)(c1ccc(C(=O)NCC(NC(=O)CN2CCN(CC(=O)[O-])CCN(CC(=O)[O-])CCN(CC(=O)[O-])CC2)C(=O)NC(CCCCNC(=O)CCC(=O)NCCCC(NC(=O)CCC(NC(=O)NC(CCC(=O)O)C(=O)O)C(=O)O)C(=O)O)C(=O)O)cc1)C(C)(C)C.[Lu+3] (centres unmarked) [^natLu-1, ^natLu-PSMA-10, reference compound]
PSMA
  IC50: 7.2 ± 3.7 nM

## CSCC[C@H](NC(=O)CC[C@H](NC(=O)N[C@@H](CCC(=O)N[C@H](CCCNC(=O)CCC(=O)NCCCC[C@@H](NC(=O)[C@@H](CNC(=O)c1ccc([Si](F)(C(C)(C)C)C(C)(C)C)cc1)NC(=O)CN1CCN(CC(=O)[O-])CCN(CC(=O)[O-])CCN(CC(=O)[O-])CC1)C(=O)O)C(=O)O)C(=O)O)C(=O)O)C(=O)O.[177Lu+3] [[^177Lu]Lu-5, [^177Lu]Lu-Proinhibitor I]
[3]; 24 h p.i.
  Biodistribution Adrenals: 0.00 ± 0.00 % ID/g
  Biodistribution Blood: 0.00 ± 0.00 % ID/g
  Biodistribution Bone: 0.00 ± 0.00 % ID/g
  Biodistribution Heart: 0.01 ± 0.00 % ID/g
  Biodistribution Intestine: 0.55 ± 0.04 % ID/g
  Biodistribution Kidneys: 0.48 ± 0.02 % ID/g
  Biodistribution Liver: 0.05 ± 0.00 % ID/g
  Biodistribution Lung: 0.33 ± 0.30 % ID/g
  Biodistribution Muscle: 0.00 ± 0.00 % ID/g
  Biodistribution Pancreas: 0.01 ± 0.00 % ID/g
  Biodistribution Parotid gland: 0.02 ± 0.00 % ID/g
  Biodistribution Spleen: 0.05 ± 0.01 % ID/g
  Biodistribution Stomach: 0.14 ± 0.07 % ID/g
  Biodistribution Submandibular gland: 0.02 ± 0.01 % ID/g
  Biodistribution Tumor: 0.09±0.02 % ID/g
